Measurements from patent US11684652B2, “HMGB1 antagonist treatment of acute lung injury” (THE FEINSTEIN INSTITUTES FOR MEDICAL RESEARCH, priority 2019, dated 2023).
Several values for one entry are separate records, joined by “and”; a condition that tells them apart may be missing. Equal values may be shown once. Entries after “also recorded” stand apart in the source; their conditions may differ. Read-outs that look alike come from different tables or passages of the source.

Legend:
[1] = system: liver ischemia and reperfusion injury; details: cited from earlier work
[2] = system: APAP-induced liver injury; details: cited from earlier work
[3] = system: PAMPs-induced TNF release (LPS, PGN, poly I:C, S100A12); details: Yang 2015; cited from earlier work
[4] = system: influenza virus A/PR/8/34 (PR8); test: lethal influenza infection model; assay type: in vivo; details: C57BL/6J mice; K883 100 ug/mouse intraperitoneally for 5 consecutive days from two days after infection; vs vehicle
[5] = system: APAP-induced liver injury; test: APAP-induced liver injury model; assay type: in vivo, mouse
[6] = system: liver ischemia and reperfusion injury; test: warm liver ischemia and reperfusion (I/R) model; assay type: in vivo, mouse; details: 6 hours after reperfusion, K883 vs vehicle control; FIGS. 21A-C
Procedure: […] (SEQ ID NO: 1) (or vehicle control) was administered intraperitoneally at 500 μg/mouse at the time of I/R surgery and euthanized 6 hours later. Serum levels of ALT and AST were reduced in […] (SEQ ID NO: 1)-treated group vs. vehicle controls. *: P<0.05 vs. I/R group. n=5-7 mice/group.

[7] = system: PAMPs-induced TNF release (LPS, PGN, poly I:C, S100A12); test: PAMPs-induced TNF release in human macrophages; assay type: cell-based; details: human primary macrophages, increasing amounts of K883, 16 hours
Procedure: TNF released was measured.

[8] = stability under acidic conditions (LC-MS); assay type: physicochemical; details: pH=2, two hours
[9] = pharmacokinetics after intravenous administration in rats (LC-MS); details: IV 1 mg/kg
[10] = system: CCI-induced neuropathic pain; test: chronic constriction injury (CCI) of the sciatic nerve neuropathic pain model; assay type: in vivo, rat
Procedure: The CCI rats each received surgery. […] Mechanical and thermal sensitivity tests were also performed over time. Hargreaves Thermal Hypersensitivity test was administered to the rats as well as Von Frey mechanical hypersensitivity test.
Rats (male Wistar, 150-180 gm, n=6/group) had CCI surgery. […] Two weeks after surgery, thermal (Hargreaves) or mechanical (von Frey) hypersensitivity was assessed. *: P<0.05 vs. PBS group.
In this experiment, male Wistar rats (n=6/group) had CCI surgery. […] Mechanical allodynia was assessed 5 hours later. N=6-8 rats/group. *: p<0.05) vs. HMGB 1 alone. Mechanical and thermal sensitivity tests were also performed over time.

STZ-induced diabetes = STZ-induced diabetes model; assay type: in vivo; details: STZ-diabetic mice, repetitive K883 500 μg/mouse, vs PBS
Procedure: Mice were administered repetitive administration of […] (500 μg/mouse). […] Repetitive administration of […] was therefore shown to be beneficial in STZ-induced diabetes. […] (*: P<0.05 vs. PBS group. N=6-8 mice per group).

## NC(=O)[C@H](CCC(=O)O)NC(=O)[C@H](CO)NC(=O)[C@H](CO)NC(=O)[C@@H](N)Cc1ccccc1 [P5779]
[1]; 6 hours after reperfusion, P5779 vs vehicle control
  liver inflammation, H&E (neutrophil infiltration): reduced inflammation
[1]; male C57BL/6 mice, 500 μg/mouse IP at the time of I/R surgery, 6 hours, vs vehicle
  serum levels of ALT and AST: reduced
[2]; APAP 350 mg/kg, P5779 50 or 500 μg/mouse IP at 2 and 7 hours post-APAP, vs scrambled control peptide
  liver necrosis (H&E): reduced liver necrosis
[2]; APAP 400 mg/kg, P5779 500 μg/mouse IP once a day for 5 days starting 2 hours post-APAP
  percent survival (2 weeks) post-APAP: significantly improved
[3]
  suppression of TNF release in macrophages stimulated by LPS, PGN, Poly I:C, CpG DNA or S100 A12: not suppress TNF release

## NC(=O)N(CCC(=O)O)NC(=O)[C@H](CO)NC(=O)[C@H](CO)NC(=O)N(N)Cc1ccccc1 [K883]
[4]
  survival (14 days) after PR8 infection: significant survival
[5]; 50 ugs/mouse of K883, vs vehicle controls
  serum ALT: reduced serum ALT
[5]; APAP 350 mg/kg IP, K883 50 μg/mouse IP at 2 and 7 hours post-APAP, 24 hours, vs vehicle
  liver necrosis (H&E): reduced liver necrosis
[5]; APAP 400 mg/kg, 50 μg/mouse IP once-a-day for 5 days starting 2 hours post-APAP, 8 in the control group
  survival (2 weeks) post-APAP: 14 mice out of 15
[6]
  liver inflammation, H&E (neutrophil infiltration): reduced inflammation
[7]
  inhibition of TNF release induced by other PAMPs (LPS, PGN, AGE, Poly I:C): failed to inhibit other PAMPS; also recorded: does not inhibit other PAMPs
[8]
  stability under acidic conditions: resistant to acid hydrolysis
[9]; Mean
  AUC∞: 3778 ng·h/mL
[9]; individual rats, 1 mg/kg
  AUC∞: 3808 ng·h/mL and 3751 ng·h/mL
[10]; K883 800 μg/rat IP once daily for three days, evaluated for 2 weeks
  tolerance to repeated treatment: did not develop tolerance
[10]; NO CCI (reference value)
  Paw Withdrawal Latency: 9.5 ± 1.0 s
[10]; male Wistar rats, K883 800 μg/rat IP once a day for 3 days, vs PBS
  CCI-induced thermal (Hargreaves) and mechanical (von Frey) hypersensitivity: ameliorated both mechanical and thermal hypersensitivity; also recorded: improved CCI-induced thermal and mechanical hypersensitivity; also recorded: ameliorated the thermal hypersensitivity
[10]; spine
  CCI-induced CXCL1, TNF and IL-1β expression (spine): reduce CCI-induced CSCL1, TNF and IL-1(3 expression
STZ-induced diabetes
  hyperglycemia: delays hyperglycemia
  insulitis: reduces insulitis
  weight gain: improves weight gain
